Earlier results as cited in patent US11678683B2, “Processed edible product comprising a polyelectrolyte complex and an antimicrobial compound” (Ceradis B.V., priority 2013, dated 2023).

Assays:
[1] = neutral aqueous systems

For C[C@@H]1C/C=C/C=C/C=C/C=C/[C@H](O[C@@H]2O[C@H](C)[C@@H](O)[C@H](N)[C@@H]2O)C[C@@H]2O[C@](O)(C[C@@H](O)C[C@H]3O[C@@H]3/C=C/C(=O)O1)C[C@H](O)[C@H]2C(=O)O [Natamycin, natamycin], the Solubility [1] is given as 30-40 ppm and the “MIC (Minimal Inhibitory Concentration)” value (most fungi) is given as “less than 10 ppm”.
